The text below walks through data of patent US4069337A, “2-Substituted-indole-1-lower-alkanecarboxamides having anti-secretory or anti-ulcer activity” (Sterling Drug Inc., priority 1976, dated 1978).

Assay [1] deals with secretion of gastric fluids. The assay is described as follows: anti-secretory activity in pylorus-ligated rats (method of Shay et al.). As to conditions: for inhibition in vivo at 100 mg/kg: po. The format is in vivo, male albino Wistar rats. As to the method: In standard biological test procedures, described generally by Shay et al., Gastroenterology 5, 43 (1945) and 26, 906 (1954) and by Selmici et al., Acta Physiol. Acad. Sci. Hung. […] Anti-secretory activity was determined in male albino Wistar rats weighing approximately 180 g. using the method described by Shay et al. which is described as follows: the rats were divided into medicated groups of at least five rats each and control groups of ten rats. The rats were medicated orally once daily for 2 days prior to stomach ligation and once again immediately following ligation. All drugs were administered as the free base, and control rats received only the vehicle of medication. The rats were housed individually in wire cages, food was withdrawn 48 hours prior to surgery, and water was withdrawn at the time of surgery. Laparotomy was performed under light ether anesthesia, the pyloric-duodenal junction was ligated, and the wound was closed with metal clips and sprayed with a protective surgical dressing. Five hours following surgery, the rats were sacrificed, the stomach was removed, and the gastric juice collected. The gastric fluid was centrifuged, the total volume, color, and volume of solids were recorded. The pH of the gastric fluid was then determined on a Beckman pH meter, and the "free" and "total" hydrochloric acid content of each gastric sample was determined by titrating an aliquot of the gastric fluid (diluted to approximately 10 ml. with distilled water) by titrating with 0.1N sodium hydroxide against Toepfers reagent and phenolphthalein, respectively. By determining the milliequivalents of hydrochloric acid per milliliter of gastric juice and knowing the total volume of gastric juice secreted by each rat, the total acid output can be calculated. Since pH is a function of "free" acid, the activity of the test compounds can be evaluated by comparison of the mean "free" acid of medicated rats with the mean "free" acid of the controls, and the activity can thus be expressed in terms of percent inhibition of free acid.
(§1) Data obtained on administration of the compounds of formula I in rats in the anti-secretory and anti-ulcer tests described above are given in the table below. Unless noted otherwise, data were obtained on oral administration. Results in the anti-secretory activity tests are given in terms of the pH of the gastric fluid in the test animals and the percent inhibition of free acid, while results in the anti-ulcer test are given either in terms of the percent inhibition of ulcers or as a ratio representing the number of animals with ulcers (as the numerator) to the total number of animals in the test group (as the denominator). All doses are expressed in mg./kg.

The subject of assay [2] is reserpine-induced stomach ulceration. The assay is described as follows: anti-ulcer activity, reserpine-induced ulcer test (method of Selmici et al.). The format is in vivo, male, albino, Sprague-Dawley rats. As to conditions: Rattus norvegicus, 18 h, oral. The method, then:
The anti-ulcer activity of the compounds was determined using the reserpine-induced anti-ulcer test method, described by Selmici et al., which is described briefly as follows: male, albino, Sprague-Dawley rats, weighing approximately 300 g., were divided into medicated and control groups of at least five rats each, and one positive control group of five rats medicated with a known drug at the active dose was run with each experiment. The rats were medicated forty-eight, twenty-four, and one hour before receiving an injection of reserpine. All test drugs were administered orally in terms of base, and the control rats received only the vehicle of medication. The rats were housed individually in wire cages, and food was withdrawn 24 hours prior to injection of reserpine, while water was allowed ad libitum. One hour following the third medication, 5.0 mg. of reserpine per kilogram of body weight in a concentration of 5 mg./ml. was injected intramuscularly in each rat. Eighteen hours after injection the rats were sacrificed, their stomachs removed, opened along the greater curvature, rinsed in warm saline, and pinned to a cork board for gross observation. The stomachs were examined for the number and size of ulcerations located in the glandular portion of the stomach with the aid of a one millimeter grid ocular with a 10x dissecting microscope. The degree of ulceration was arbitrarily graded according to the number and size of the ulcers as follows:
The points were added together and divided by the number of rats in each group to give an ulcer score, and the difference in the mean scores of the medicated and control group was expressed as percent inhibition of ulceration. Alternatively, the results can be expressed as a ratio of the total number of rats with any degree of ulceration (as the numerator) to the total number of rats in the test group (as the denominator).
as §1

Assay [3] shares this test system. The assay is described as above. As to conditions: Rattus norvegicus, sc, 18 h. The format is in vivo, male, albino, Sprague-Dawley rats.
The mark [4] stands for this setting: Rattus norvegicus, 5 h, oral, 100 mg./kg., read-out: % Inhibition of Free Acid.

Take `Cc1c(C)n(CCC(N)=O)c2ccccc12` [Example 4A, β-(2,3-dimethyl-1-indole)propionamide]: the inhibition in vivo at 100 mg/kg in assay [1] (setting [4]) was found to be 100%. For the same compound, the “pH of the gastric fluid” value in assay [1] (oral, 100 mg./kg.) amounted to 5.3. Moreover, the inhibition in vivo at 1.56 mg/kg in assay [2] (1.56 mg./kg.) came out at 43%. This compound gave an inhibition in vivo at 6.25 mg/kg in assay [2] (6.25 mg./kg.) of 48%. Further, in assay [2] (25 mg./kg.), the inhibition in vivo at 25 mg/kg was 93%. Further, the inhibition in vivo at 50 mg/kg in assay [3] was determined as 89%.
`Cc1c(C)n(CC(=O)NCCO)c2ccccc12` [Example 3A, 2,3-dimethyl-1-indole-N-(2-hydroxyethyl)acetamide]: the inhibition in vivo at 100 mg/kg in assay [1] (setting [4]) turned out to be 22%; in assay [2] it was 84%. In addition, the “pH of the gastric fluid” value in assay [1] (oral, 100 mg./kg.) is on record as 1.4. Besides, the inhibition in vivo at 50 mg/kg in assay [3] amounted to 69%.
In the case of `CNC(=O)Cn1c(C)c(C)c2ccccc21` [Example 1B, 2,3-Dimethyl-1-indole-N-methylacetamide], the inhibition in vivo at 6.25 mg/kg in assay [1] (Rattus norvegicus, intraduodenal, 5 h, i.d., 6.25 mg./kg., read-out: % Inhibition of Free Acid) was 46%. Moreover, the figures for the inhibition in vivo at 100 mg/kg in assay [1] (setting [4]) and in assay [2] were 45% and 91%, respectively. Besides, the “pH of the gastric fluid” value in assay [1] (i.d., 6.25 mg./kg.) is reported as 1.4; in assay [1] (oral, 100 mg./kg.), 1.8. In assay [3], the inhibition in vivo at 50 mg/kg was 93%.
